# Square brackets hold non-standard residues; d marks the D form. Peptide text beside a SMILES is read from it. * marks the point of attachment. Dolaproine = CO[C@@H]([C@@H]1CCCN1)[C@@H](C)C(=O)O; Dil = CC[C@H](C)[C@H](NC)[C@@H](CC(=O)O)OC; X1 = C[C@@H](N*)[C@@H](O)c1ccccc1; NMeV = CN[C@H](C(=O)O)C(C)C
# Assays:
# CAL-27 cells [1] = assay: Phase contrast microscopy; format: cell-based, human; settings: 2 nM overnight
# Description: Cells were fixed at indicated times and imaged for Cy5 fluorescence (red). Nuclei stained with DAPI (blue). Scale bar, 10 gm. Representative images of three independent experiments. […] Nuclei stained with DAPI (blue). Scale bar, 10 gm. Representative images of three independent experiments. […] Representative data of two independent experiments. […] Representative images of three independent experiments. Scale bar, 50 gm.
# CAL-27 cells [2] = assay: Cell cycle (propidium iodide, flow cytometry); format: cell-based, human; settings: treated overnight
# Procedure: (§1) Cells were treated with RNAse, stained with propidium iodide (PI) and analysed by FACS using FloJo software.
# OE19 cells [3] = assay: Cell cycle (propidium iodide, flow cytometry); format: cell-based, human; settings: treated overnight
# Procedure: as §1
# [4] = system: CAL-27 (EGRF+) and OE19 (HER2+) cells; assay: Alamar Blue cell viability assay; format: cell-based, human; settings: dose range, 72-96 h
# CAL-27 cells [5] = assay: Clonogenic assay (SF2); format: cell-based, human; settings: drug overnight then 2 Gy, mertansine 5 nM
# Procedure: Following IR, cells were counted, re-plated at varying cell numbers in drug-free media. […] Surviving fraction at 2 Gy (SF2) was calculated as the fraction of cells surviving 2 Gy compared with non-irradiated cells.
# [6] = system: CALU3 (EGFR+, HER2+) cells; assay: Neutral comet assay; format: cell-based, human; settings: 6 Gy, 2 nM overnight, vs vehicle or 20 nM antibody
# Procedure: (§2) Cells were collected 15 min post IR, suspended in agarose gel and lysed per assay directions (Trevigen). Samples underwent electrophoresis under neutral conditions and were then stained with Sybr Green. Comet tails were counted in multiple fields (>60 cells per sample) and analysed using CometScore (TriTek Corp). Comet tail length was normalized to vehicle-treated, non-irradiated cells.
# OE19 cells (HER2+) = assay: Neutral comet assay; format: cell-based, human
# Procedure: as §2
# CAL-27 tumour xenografts = assay: In vivo tumour xenograft experiments (tumour growth); set-up: species or system mice; settings: non-irradiated tumours; day 0 dose: 0.5 nmol cetuximab or C-MMAE, 2 nmol free MMAE
# Procedure: (§4) CAL-27, OE19, NCI N87 and HCT116 tumour xenografts were established and tumour growth was measured with digital calipers. Tumour volume was measured blindly to treatment group and calculated using the formula as 1/2×length×width. Mice were randomized into groups once the average tumour volume reached >100=113. […] For irradiated mice, the tumour-bearing hindlimbs were focally irradiated while the remainder of the mouse was shielded from IR with custom designed lead blocking >95% of the dose as verified by dosimeters placed on the mouse. […] To prevent unnecessary morbidity, mice were killed if tumour length exceeded 15 mm per protocol Nonlinear regression least squares fit was used to calculate tumour volume doubling times. […] To minimize the number of mice used, tumours were grown in the bilateral flanks.
# HER2+ tumor cells = assay: Neutral comet assay following 2 Gy, FIG. 8; format: cell-based
# Description: Neutral comet assay to measure DNA double strand breaks following 2 Gy of ionizing radiation (IR). IR increased comet tail length by 2.8 fold comapred to non-irradiated cells.
# [7] = system: HER2 expressing tumor cells; tumor cell lines; assay: Cell survival by Alamar Blue assay, FIG. 7; format: cell-based; settings: across tumor cell lines
# Description: MMAF potency can be increased and cytotoxicity restricted by antibody conjugation. Cell survival measured by Alamar Blue assay.
# CAL-27 cells [8] = system: CAL-27 cells
# Procedure: (§3) Alamar Blue (resazurin) was added to the cells and allowed to incubate for 2-4 h at 37° C. Plates were analysed using a plate reader with fluorescence measured at 560 nm.
# HCT116 cells [9] = assay: Cell cycle (propidium iodide, flow cytometry); format: cell-based, human; settings: treated overnight
# Procedure: as §1
# OE19 cells [10] = assay: Alamar Blue cell viability assay; format: cell-based, human; settings: OE19 (HER2 cell line); 72-96 h
# HCT116 cells [11] = settings: HCT116 (HER2−); 72-96 h
# Procedure: as §3
# [12] = system: NCI N87 (gastric cancer) cells; settings: NCI N87 (HER2 cell line); 72-96 h
# Procedure: as §3
# [13] = system: cell lines irrespective of HER2 expression; assay: Alamar Blue cell viability assay, cells based on HER2 expression; set-up: species or system human; settings: 72-96 h
# HER2+ cell lines = assay: Neutral comet assay; format: cell-based, human; settings: HER2+ cells; 20 nM overnight, 2 Gy
# Procedure: as §2
# HER2− cell lines = assay: Neutral comet assay; format: cell-based, human; settings: HER2− cells; 20 nM overnight, 2 Gy
# Procedure: as §2
# OE19 tumour xenografts = assay: Immunohistochemistry of tumour xenografts (pHistone H3, cleaved caspase 3); format: in vivo, mice; settings: OE19 tumours harvested 48 h after injection
# Procedure: Tissue sections were cut from blocks of formalin-fixed paraffin embedded xenografts. Four micron thick tissue sections were stained with antibodies to phosphohistone H3 (pH3, Abcam, catalogue number ab32107) and cleaved caspase-3 (C1C3, Cell Signaling Technology, catalogue number 9661) and used at dilutions of 1:300 and 1:900, respectively. Slides were stained on a Ventana Discovery Ultra (Ventana Medical Systems, Tucson, Ariz., USA). Antigen retrieval was performed using CC1 for 24-40 min at 95° C. The primary antibodies were incubated on the sections for 1 h at 37° C. Primary antibodies were visualized used DAB as a chromagen using the UltraMap system (Ventana Medical systems) followed by hematoxylin as a counterstain. Slides were rinsed, dehydrated through alcohol and xylene and coverslipped.
# Immununostained slides were scanned using an Axio Scan.Z1 (Zeiss; Oberkochen, Germany). […] Whole-slide images were imported into Definiens Software for quantitative analysis (Definiens; Munich, Germany). […] For analysis of pH3 (a nuclear stain), the total number of nuclei and the total number of nuclei showing DAB staining (pH3 positive cells) were recorded within each ROI. The percent of positive nuclei was then calculated for each sample. For analysis of C1C3 (a cytoplasmic stain), mean DAB chromagen intensity was measured and calculated within the ROI for each sample.
# [14] = system: OE19 (HER2+) tumour xenografts; assay: In vivo tumour xenograft experiments (tumour growth); set-up: species or system mice; settings: for Tumour doubling time in days (mean, 95% CI): OE19
# Procedure: as §4
# [15] = system: NCI N87 (HER2+) tumour xenografts; assay: as above; set-up: species or system mice; settings: for Tumour doubling time in days (mean, 95% CI): NCI N87
# Procedure: as §4
# [16] = system: HCT116 (HER2−) tumour xenografts; assay: as above; set-up: species or system mice; settings: for Tumour doubling time in days (mean, 95% CI): HCT116
# Procedure: as §4
# HER2+ tumours = settings: combined with IR
# Procedure: CAL-27, OE19, NCI N87 and HCT116 tumour xenografts were established and tumour growth was measured with digital calipers. […] Mice were assigned to indicated groups in ‘Results’. […] For irradiated mice, the tumour-bearing hindlimbs were focally irradiated while the remainder of the mouse was shielded from IR with custom designed lead blocking >95% of the dose as verified by dosimeters placed on the mouse. […] To minimize the number of mice used, tumours were grown in the bilateral flanks.
# HCT116 cells [17] = assay: Clonogenic assay (SF2); format: cell-based, human; settings: 5 nM mertansine overnight then 2 Gy
# Procedure: Following IR, cells were counted, re-plated at varying cell numbers in drug-free media. 10-14 days after initial seeding formed colonies were methanol fixed, stained with crystal violet and counted. Surviving fraction at 2 Gy (SF2) was calculated as the fraction of cells surviving 2 Gy compared with non-irradiated cells.
# [18] = 0.25 nmol day 0, 2.5 Gy days 1, 2 and 3
# [19] = 0.25 nmol i.v. day 0 + IR 2.5 Gy days 1, 2 and 3, extrapolated
compound,measurement,setting,value
"CC[C@H](C)[C@@H]([C@@H](CC(=O)N1CCC[C@H]1[C@H](OC)[C@@H](C)C(=O)N[C@H](C)[C@@H](O)c1ccccc1)OC)N(C)C(=O)[C@@H](NC(=O)[C@@H](NC)C(C)C)C(C)C [MMAE, monomethyl auristatin E] (H-[NMeV]V[Dil][Dolaproine]-X1)",cell morphology,CAL-27 cells [1],"cells rounding up, indicative of G2/M"
same,cell cycle profile (G2/M),CAL-27 cells [2],cells accumulating in G2/M
same,cell cycle profile (G2/M),OE19 cells [3],cells accumulating in G2/M
same,cytotoxicity (cell viability),[4],more potent compared with standard cytotoxic chemotherapies
same,surviving fraction following 2 Gy (SF2),CAL-27 cells [5],decreased
same,comet tail length after irradiation,[6],increased comet tail length to a similar degree
same,comet tail length after irradiation,"OE19 cells (HER2+); 6 Gy, 2 nM overnight",further increased comet tail length
same,tumour growth,CAL-27 tumour xenografts,delayed tumour growth
same,IR induced DNA damage (comet tail length),HER2+ tumor cells,further increased IR induced DNA damage
CC[C@H](C)[C@@H]([C@@H](CC(=O)N1CCC[C@H]1[C@H](OC)[C@@H](C)C(=O)N[C@@H](Cc1ccccc1)C(=O)O)OC)N(C)C(=O)[C@@H](NC(=O)[C@@H](NC)C(C)C)C(C)C [MMAF] (H-[NMeV]V[Dil][Dolaproine]F-OH),potency compared to MMAE,[7],decreased potency compared to MMAE across tumor cell lines
same,IR induced DNA damage (comet tail length),HER2+ tumor cells,not
CC(=O)O[C@H]1C(=O)[C@@]2(C)[C@H]([C@H](OC(=O)c3ccccc3)[C@]3(O)C[C@H](OC(=O)[C@H](O)[C@@H](NC(=O)c4ccccc4)c4ccccc4)C(C)=C1C3(C)C)[C@]1(OC(C)=O)CO[C@@H]1C[C@@H]2O [paclitaxel],cytotoxic potency (comparison),CAL-27 cells [8]; HER2− CAL-27 cells,more potent than T-DM1
ado-trastuzumab emtansine [T-DM1],cell cycle profile (G2/M),HCT116 cells [9],resembled vehide-treated cells
same,cell cycle profile (G2/M),OE19 cells [3],blocked OE19 cells in G2/M
same,IC50,OE19 cells [10],< 1 nM
same,IC50,"CAL-27 cells [8]; CAL-27 (HER2−), 72-96 h",> 100 nM
same,IC50,HCT116 cells [11],> 100 nM
same,IC50,[12],< 1 nM
same,potency in relation to HER2 expression,[13],directly correlated with HER2 expression
same,radiosensitization (IR induced DNA double-strand breaks),HER2+ cell lines,restricted radiosensitization of HER2+cells
same,radiosensitization (IR induced DNA double-strand breaks),HER2− cell lines,appear inert to irradiated non-HER2 expressing cells
same,radiosensitization (comet tail length),OE19 cells (HER2+); doses as low as 2 nM T-DM1,radiosensitized OE19 cells
same,apoptosis (cleaved caspase 3) in tumours,OE19 tumour xenografts,increased apoptosis
same,cells in G2/M as measured by pS10 Histone H3,OE19 tumour xenografts,increased the number of cells in radiosensitive G2/M phase
same,"tumour regression, combined with IR",[14]; [18],significantly prolonged tumour regression
same,"Tumour doubling time in days (mean, 95% CI)",[14]; [19],66 (33+) days
same,"Tumour doubling time in days (mean, 95% CI)","[14]; 0.25 nmol i.v. day 0, no IR",11 (8-17) days
same,tumour control combined with IR vs other regimens,[14]; by day 22,superior to all other treatment
same,tumour growth,"[14]; single dose of 1 nmol, compared with control or trastuzumab by day 14",equally efficacious in slowing tumour growth
same,"tumour regression, combined with IR",[15]; [18],significantly prolonged tumour regression
same,"Tumour doubling time in days (mean, 95% CI)",[15]; [19],113 (82-179) days
same,"Tumour doubling time in days (mean, 95% CI)","[15]; 0.25 nmol i.v. day 0, no IR",23 (21-25) days
same,tumour control combined with IR vs other regimens,[15]; by day 32,superior to all other treatment
same,benefit of adding drug to IR,[16]; [18],showed no benefit of adding T-DM1 to IR
same,"Tumour doubling time in days (mean, 95% CI)","[16]; 0.25 nmol i.v. day 0 + IR 2.5 Gy days 1, 2 and 3",7 (5-12) days
same,"Tumour doubling time in days (mean, 95% CI)","[16]; 0.25 nmol i.v. day 0, no IR",3 (2-5) days
same,long term tumour control (survival curve),HER2+ tumours,long term tumour control was observed
COc1cc2cc(c1Cl)N(C)C(=O)C[C@H](OC(=O)[C@H](C)N(C)C(=O)CCS)[C@]1(C)O[C@H]1[C@H](C)[C@@H]1C[C@@](O)(NC(=O)O1)[C@H](OC)/C=C/C=C(\C)C2 [mertansine],cell cycle profile (G2/M),HCT116 cells [9],increased the accumulation of both OE19 and HCT116 cells in the radiosensitive G2/M phase
same,cell cycle profile (G2/M),OE19 cells [3],increased the accumulation of both OE19 and HCT116 cells in the radiosensitive G2/M phase
same,IC50,"[13]; across cell lines, irrespective of HER2 expression",10 nM
same,surviving fraction following 2 Gy (SF2),CAL-27 cells [5],decreased further
same,surviving fraction following 2 Gy (SF2),HCT116 cells [17],decreased further
same,radiosensitization (IR induced DNA double-strand breaks),HER2+ cell lines,radiosensitized by increasing IR induced DNA double-strand breaks in both HER2+ and HER2− cell lines
same,radiosensitization (IR induced DNA double-strand breaks),HER2− cell lines,radiosensitized by increasing IR induced DNA double-strand breaks in both HER2+ and HER2− cell lines
